Measured values as given in US10577363B2, “Substituted piperidine compounds” (EPIZYME, INC., priority 2014, dated 2020).

These molecules were tested against SMYD3 (Homo sapiens (Human), UniProt Q9H7B4) (assay: SMYD3 biochemical assay (SPA, 3H-SAM methylation of MEKK2 protein substrate)). Conditions: read-out: SMYD3 Biochem IC50 (μM)*.
Description: S-adenosylmethionine (SAM), S-adenosylhomocysteine (SAH), Tris, Tween20, dimethylsulfoxide (DMSO), bovine skin gelatin (BSG), and Tris(2-carboxyethyl)phosphine hydrochloride solution (TCEP) were purchased from Sigma-Aldrich at the highest level of purity possible. ^3H-SAM was purchase from American Radiolabeled Chemicals with a specific activity of 80 Ci/mmol. 384-well opaque white OptiPlates and SPA beads (Perkin Elmer, catalog # RPNQ0013) were purchased from PerkinElmer.
N-terminally GST-tagged MEKK2 (MAP3K2) protein corresponding to reference sequence AAF63496.3 was purchased from Life Technologies (catalog # PV4010). This protein was expressed in High Five insect cells and purified to >85% purity. Protein identity was confirmed by MS/MS analysis after proteolytic digestion. The protein sequence used was:
Full-length human SMYD3 isoform 1 (BAB86333) was inserted into a modified pET21b plasmid containing a His6 tag and TEV and SUMO cleavage sites.
E. coli (BL21 codonplus RIL strain, Stratagene) were transformed with plasmid pEPZ553 by mixing competent cells and plasmid DNA and incubating on ice for 30 minutes followed by heat shock at 42° C. for 1 minute and cooling on ice for 2 minutes. Transformed cells were grown and selected on LB agar with 100 μg/mL ampicillin and 17 μg/mL chloramphenicol at 37° C. overnight. A single clone was used to inoculate 200 mL of LB medium with 100 μg/mL ampicillin and 17 μg/mL chloramphenicol and incubated at 37° C. on an orbital shaker at 180 rpm. Once in log growth, the culture was diluted 1:100 into 2 L of LB medium and grown until OD600 was about 0.3 after which the culture was incubated at 15° C. and 160 rpm. Once OD600 reached about 0.4, IPTG was added to a final concentration of 0.1 mM and the cells were grown overnight at 15° C. and 160 rpm. Cells were harvested by centrifugation at 8000 rpm, for 4 minutes at 4° C. and stored at −80° C. for purification.
The column was washed with Buffer B (Buffer A plus 20 mM imidazole) and His-tagged SMYD3 was eluted with Buffer C (Buffer A plus 300 mM imidazole). The His tag, TEV and SUMO cleavage sites were removed generating native SMYD3 by addition of ULP1 protein at a ratio of 1:200 (ULP1:SMYD3). Imidazole was removed by dialysis overnight in Buffer A. The dialyzed solution was applied to a second Nickel column and the native SMYD3 protein was collected from the column flow-through. The flow-through was dialyzed in Buffer D (25 mM Tris, 5% glycerol, 5 mM β-mercaptoethanol, 50 mM NaCl, pH7.8) and ULP1 was removed using a Q sepharose fast flow column.
General Procedure for SMYD3 Enzyme Assays on MEKK2 Protein Substrate
The assays were all performed in a buffer consisting of 25 mM Tris-Cl pH 8.0, 1 mM TCEP, 0.005% BSG, and 0.005% Tween 20, prepared on the day of use. […] DMSO (1 ul) was added to Columns 11, 12, 23, 24, rows A-H for the maximum signal control and 1 ul of SAH, a known product and inhibitor of SMYD3, was added to columns 11, 12, 23, 24, rows I-P for the minimum signal control. A cocktail (40 ul) containing the SMYD3 enzyme was added by Multidrop Combi (Thermo-Fisher). The compounds were allowed to incubate with SMYD3 for 30 min at room temperature, then a cocktail (10 ul) containing SAM and MEKK2 was added to initiate the reaction (final volume=51 ul). […] The assays were stopped by the addition of non-radiolabeled SAM (10 ul) to a final concentration of 100 uM, which dilutes the ^3H-SAM to a level where its incorporation into MEKK2 is no longer detectable. Radiolabeled MEKK2 was detected using a scintillation proximity assay (SPA). 10 uL of a 10 mg/mL solution of SPA beads in 0.5 M citric acid was added and the plates centrifuged at 600 rpm for 1 min to precipitate the radiolabeled MEKK2 onto the SPA beads. The plates were then read in a PerkinElmer TopCount plate reader to measure the quantity of ^3H-labeled MEKK2 as disintegrations per minute (dpm) or alternatively, referred to as counts per minute (cpm).
Molecule N[C@@H](Cc1ccccc1)C(=O)N1CCC(NC(=O)c2cc(C3CC3)on2)CC1 [compound 1, N-(1-(L-phenylalanyl)piperidin-4-yl)-5-cyclopropylisoxazole-3-carboxamide] has an IC50 of 2.88 µM. N[C@H](Cc1c[nH]c2ccccc12)C(=O)N1CCC(NC(=O)c2cc(C3CC3)on2)CC1 [compound 2, N-(1-(D-tryptophyl)piperidin-4-yl)-5-cyclopropylisoxazole-3-carboxamide] was tested, and the IC50 was 15.5 µM. N[C@@H](Cc1ccc(O)cc1)C(=O)N1CCC(NC(=O)c2cc(C3CC3)on2)CC1 [compound 3, N-(1-(L-tyrosyl)piperidin-4-yl)-5-cyclopropylisoxazole-3-carboxamide] showed an IC50 of 0.486 µM. NCC(=O)N[C@@H](Cc1c[nH]c2ccccc12)C(=O)N1CCC(NC(=O)c2cc(C3CC3)on2)CC1 [compound 4, 5-cyclopropyl-N-(1-(glycyl-L-tryptophyl)piperidin-4-yl)isoxazole-3-carboxamide] was tested, and the IC50 was 0.947 µM. C[C@@H]1CC(NC(=O)c2cc(C3CC3)on2)CCN1C(=O)[C@@H](N)Cc1ccc(O)cc1 (stereo partly drawn) [compound 6, N-((2R)-1-(L-tyrosyl)-2-methylpiperidin-4-yl)-5-cyclopropylisoxazole-3-carboxamide] showed an IC50 of 2.97 µM. With C[C@H]1CC(NC(=O)c2cc(C3CC3)on2)CCN1C(=O)[C@@H](N)Cc1ccc(O)cc1 (stereo partly drawn) [compound 7, N-((2S)-1-(L-tyrosyl)-2-methylpiperidin-4-yl)-5-cyclopropylisoxazole-3-carboxamide] the IC50 was 1.04 µM. Molecule CN[C@@H](Cc1cn(C)c2ccccc12)C(=O)N1CCC(NC(=O)c2cc(C3CC3)on2)CC1 [compound 8, 5-cyclopropyl-N-(1-(Na,1-dimethyl-L-tryptophyl)piperidin-4-yl)isoxazole-3-carboxamide] has an IC50 of 1.2 µM. For N[C@@H](Cc1ccc(O)c(Br)c1)C(=O)N1CCC(NC(=O)c2cc(C3CC3)on2)CC1 [compound 9, (S)-N-(1-(2-amino-3-(3-bromo-4-hydroxyphenyl)propanoyl)piperidin-4-yl)-5-cyclopropylisoxazole-3-carboxamide], the IC50 was 0.214 µM. For NC[C@H](Cc1ccccc1)C(=O)N1CCC(NC(=O)c2cc(C3CC3)on2)CC1 [compound 11, (S)-N-(1-(3-amino-2-benzylpropanoyl)piperidin-4-yl)-5-cyclopropylisoxazole-3-carboxamide], the IC50 was 2.41 µM. Work on N[C@H]1CC[C@H](C(=O)N2CCC(NC(=O)c3cc(C4CC4)on3)CC2)CC1 [compound 13, N-(1-((1r,4R)-4-aminocyclohexane-1-carbonyl)piperidin-4-yl)-5-cyclopropylisoxazole-3-carboxamide] yielded an IC50 of 1.29 µM. N[C@@H](Cc1ccc(O)cc1)CN1CCC(NC(=O)c2cc(C3CC3)on2)CC1 [compound 14, (S)-N-(1-(2-amino-3-(4-hydroxyphenyl)propyl)piperidin-4-yl)-5-cyclopropylisoxazole-3-carboxamide] showed an IC50 of 4.59 µM. With O=C(NC1CCN(C(=O)C2CCNCC2)CC1)c1cc(C2CC2)on1 [compound 15, 5-cyclopropyl-N-(1-(piperidine-4-carbonyl)piperidin-4-yl)isoxazole-3-carboxamide] the IC50 was 8.55 µM. Work on CN1CCC(C(=O)N2CCC(NC(=O)c3cc(C4CC4)on3)CC2)CC1 [compound 16, 5-cyclopropyl-N-(1-(1-methylpiperidine-4-carbonyl)piperidin-4-yl)isoxazole-3-carboxamide] yielded an IC50 of 10 µM. Molecule O=C(NC1CCN(C(=O)CC2CCNCC2)CC1)c1cc(C2CC2)on1 [compound 17, 5-cyclopropyl-N-(1-(2-(piperidin-4-yl)acetyl)piperidin-4-yl)isoxazole-3-carboxamide] has an IC50 of 1.06 µM. CN1CCC(CC(=O)N2CCC(NC(=O)c3cc(C4CC4)on3)CC2)CC1 [compound 18, 5-cyclopropyl-N-(1-(2-(1-methylpiperidin-4-yl)acetyl)piperidin-4-yl)isoxazole-3-carboxamide] was tested, and the IC50 was 5.08 µM. O=C(NC1CCN(C(=O)[C@@H](CO)Cc2ccccc2)CC1)c1cc(C2CC2)on1 [compound 19, (R)-N-(1-(2-benzyl-3-hydroxypropanoyl)piperidin-4-yl)-5-cyclopropylisoxazole-3-carboxamide] showed an IC50 of 30.9 µM. For N[C@H]1C[C@H](C(=O)N2CCC(NC(=O)c3cc(C4CC4)on3)CC2)C1 [compound 20, N-(1-((1r,3r)-3-aminocyclobutane-1-carbonyl)piperidin-4-yl)-5-cyclopropylisoxazole-3-carboxamide], the IC50 was 5.77 µM. Molecule N[C@H]1C[C@@H](C(=O)N2CCC(NC(=O)c3cc(C4CC4)on3)CC2)C1 [compound 21, N-(1-((1s,3s)-3-aminocyclobutane-1-carbonyl)piperidin-4-yl)-5-cyclopropylisoxazole-3-carboxamide] has an IC50 of 5.69 µM. C[C@H]1CN(C(=O)[C@H]2CC[C@H](N)CC2)CCC1NC(=O)c1cc(C2CC2)on1 (stereo partly drawn) [compound 24, N-((3S)-1-((1r,4S)-4-aminocyclohexane-1-carbonyl)-3-methylpiperidin-4-yl)-5-cyclopropylisoxazole-3-carboxamide] gave an IC50 of 2 µM. Work on C[C@@H]1CN(C(=O)[C@H]2CC[C@H](N)CC2)CCC1NC(=O)c1cc(C2CC2)on1 (stereo partly drawn) [compound 25, N-((3R)-1-((1r,4R)-4-aminocyclohexane-1-carbonyl)-3-methylpiperidin-4-yl)-5-cyclopropylisoxazole-3-carboxamide] yielded an IC50 of 0.299 µM. Work on NC[C@@H](Cc1ccc(O)cc1)C(=O)N1CCC(NC(=O)c2cc(C3CC3)on2)CC1 [compound 26, (R)-N-(1-(3-amino-2-(4-hydroxybenzyl)propanoyl)piperidin-4-yl)-5-cyclopropylisoxazole-3-carboxamide] yielded an IC50 of 5.24 µM. Molecule NC[C@H](Cc1ccc(O)cc1)C(=O)N1CCC(NC(=O)c2cc(C3CC3)on2)CC1 [compound 27, (S)-N-(1-(3-amino-2-(4-hydroxybenzyl)propanoyl)piperidin-4-yl)-5-cyclopropylisoxazole-3-carboxamide] has an IC50 of 0.342 µM. With NC[C@@H](Cc1ccc(O)c(I)c1)C(=O)N1CCC(NC(=O)c2cc(C3CC3)on2)CC1 [compound 28, (R)-N-(1-(3-amino-2-(4-hydroxy-3-iodobenzyl)propanoyl)piperidin-4-yl)-5-cyclopropylisoxazole-3-carboxamide] the IC50 was 2.04 µM. Work on O=C(NC1CCN(C[C@H](O)Cc2ccc(O)cc2)CC1)c1cc(C2CC2)on1 [compound 30, (R)-5-cyclopropyl-N-(1-(2-hydroxy-3-(4-hydroxyphenyl)propyl)piperidin-4-yl)isoxazole-3-carboxamide] yielded an IC50 of 42.7 µM. Work on O=C(NC1CCN(C(=O)[C@@H](CO)Cc2ccc(O)c(I)c2)CC1)c1cc(C2CC2)on1 [compound 31, (R)-5-cyclopropyl-N-(1-(3-hydroxy-2-(4-hydroxy-3-iodobenzyl)propanoyl)piperidin-4-yl)isoxazole-3-carboxamide] yielded an IC50 of 5.1 µM. C[C@H](N)CC(=O)NC[C@@H](Cc1ccc(O)c(I)c1)C(=O)N1CCC(NC(=O)c2cc(C3CC3)on2)CC1 [compound 32, N-(1-((R)-3-((S)-3-aminobutanamido)-2-(4-hydroxy-3-iodobenzyl)propanoyl)piperidin-4-yl)-5-cyclopropylisoxazole-3-carboxamide] was tested, and the IC50 was 4.11 µM. In the case of C[C@H](N)CC(=O)NC[C@H](Cc1ccc(O)c(I)c1)C(=O)N1CCC(NC(=O)c2cc(C3CC3)on2)CC1 [compound 33, N-(1-((S)-3-((S)-3-aminobutanamido)-2-(4-hydroxy-3-iodobenzyl)propanoyl)piperidin-4-yl)-5-cyclopropylisoxazole-3-carboxamide], the IC50 is reported as 0.473 µM.
